Measurements as given in the supplement of paper PMC11451515.

What was measured:
Details in all cases: 48 h
NOMO1 [1] = test: cell viability relative to DMSO control; higher = less cytotoxic
Method in brief: (§1)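 NOMO1 or SEM (500 cells/well) or P12-Ichikawa (1000 cells/well) leukemia cells were adapted for at least four passages in each medium. They were seeded in 1536-well plates (5 μl) and pin-dosed with library compounds in DMSO over an 11-point threefold series, 47 μM to 0.79 nM. CellTiter-Glo One luminescence was read after 48 h at 37°C. Viability is the per-plate percentage relative to DMSO wells, with cell-free wells as background.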

P12-Ichikawa [2] = test: as above
Method in brief: as §1

SEM cells [3] = test: as above
Method in brief: as §1

NOMO1 [4] = test: AUC of viability dose-response curve (% viability x log10 dose units); higher = less sensitive
Method in brief: (§2)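 Leukemia cells adapted to each medium were seeded at 500 or 1000 cells/well in 1536-well plates and dosed with library compounds in DMSO at 11 threefold doses from 47 μM to 0.79 nM for 48 h at 37°C. CellTiter-Glo One luminescence was normalised per plate to DMSO and cell-free wells, then fitted with a four-parameter log-logistic model over log10 doses. Area under the curve was taken from this fit by the trapezoidal rule, with curves above full viability scaled and curves failing quality control removed.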

P12-Ichikawa [5] = test: as above
Method in brief: as §2

SEM cells [6] = test: as above
Method in brief: as §2

Nc1ccc(C(=O)c2cc3c(ccc4ccccc43)[nH]2)cc1
cell viability [%]
Details | NOMO1 [1] | P12-Ichikawa [2] | SEM cells [3]
HPLM + 10% dialyzed FBS, 0.000781 µM | 120 | 121 | –
HPLM + 10% dialyzed FBS, 0.00234 µM | 121 | 124 | –
HPLM + 10% dialyzed FBS, 0.00702 µM | 123 | 122 | –
HPLM + 10% dialyzed FBS, 0.0211 µM | 129 | 118 | –
HPLM + 10% dialyzed FBS, 0.0632 µM | 113 | 120 | –
HPLM + 10% dialyzed FBS, 0.19 µM | 112 | 109 | –
HPLM + 10% dialyzed FBS, 0.569 µM | 117 | 96.4 | –
HPLM + 10% dialyzed FBS, 1.71 µM | 110 | 81.4 | –
HPLM + 10% dialyzed FBS, 5.12 µM | 89.5 | 31.1 | –
HPLM + 10% dialyzed FBS, 15.4 µM | 40.5 | 10.6 | –
HPLM + 10% dialyzed FBS, 46.1 µM | 26.6 | 5.96 | –
RPMI 5 mM glucose + 10% FBS, 0.000781 µM | 118 | 118 | 118
RPMI 5 mM glucose + 10% FBS, 0.00234 µM | 112 | 112 | 137
RPMI 5 mM glucose + 10% FBS, 0.00702 µM | 110 | 115 | 124
RPMI 5 mM glucose + 10% FBS, 0.0211 µM | 117 | 118 | 130
RPMI 5 mM glucose + 10% FBS, 0.0632 µM | 121 | 112 | 129
RPMI 5 mM glucose + 10% FBS, 0.19 µM | 116 | 108 | 102
RPMI 5 mM glucose + 10% FBS, 0.569 µM | 101 | 102 | 109
RPMI 5 mM glucose + 10% FBS, 1.71 µM | 109 | 77.5 | 110
RPMI 5 mM glucose + 10% FBS, 5.12 µM | 99.2 | 40.7 | 32.1
RPMI 5 mM glucose + 10% FBS, 15.4 µM | 56.4 | 12.9 | 15.9
RPMI 5 mM glucose + 10% FBS, 46.1 µM | 18.9 | 8.36 | 8.45
RPMI 5 mM glucose + 10% dialyzed FBS, 0.000781 µM | – | 118 | 121
RPMI 5 mM glucose + 10% dialyzed FBS, 0.00234 µM | – | 115 | 130
RPMI 5 mM glucose + 10% dialyzed FBS, 0.00702 µM | – | 117 | 117
RPMI 5 mM glucose + 10% dialyzed FBS, 0.0211 µM | – | 102 | 126
RPMI 5 mM glucose + 10% dialyzed FBS, 0.0632 µM | – | 116 | 138
RPMI 5 mM glucose + 10% dialyzed FBS, 0.19 µM | – | 111 | 104
RPMI 5 mM glucose + 10% dialyzed FBS, 0.569 µM | – | 91 | 100
RPMI 5 mM glucose + 10% dialyzed FBS, 1.71 µM | – | 74.9 | 95
RPMI 5 mM glucose + 10% dialyzed FBS, 5.12 µM | – | 56.6 | 27.9
RPMI 5 mM glucose + 10% dialyzed FBS, 15.4 µM | – | 13.7 | 12.1
RPMI 5 mM glucose + 10% dialyzed FBS, 46.1 µM | – | 5.99 | 11.3

AUC of viability dose-response curve
Details | NOMO1 [4] | P12-Ichikawa [5] | SEM cells [6]
HPLM + 10% dialyzed FBS | 412 | 348 | 374
RPMI 5 mM glucose + 10% FBS | 425 | 359 | 373
RPMI 5 mM glucose + 10% dialyzed FBS | 417 | 359 | 361
